Test results: paper PMC6273913, “New α-Methylene-γ-Butyrolactone Derivatives as Potential Fungicidal Agents: Design, Synthesis and Antifungal Activities” (Molecules, 2016)
pIC50: −log10 of the molar value. Like-named read-outs stand apart in the source and are kept apart here.

How the values were obtained:
[1] = test system: B. cinerea; test: Spore germination assay, fungicidal activity against B. cinerea; type: cell-based, Botrytis cinerea; details: Botrytis cinerea, in vitro, n = 3
Procedure: (§1) The fungal pathogens C. lagenarium and B. cinerea was provided by the Agricultural Culture Collection of China (Yangling, Shaanxi, China). C. lagenarium was cultured for 2 weeks at 25 ± 1 °C on potato dextrose agar (PDA) while B. cinerea was cultured at 20 °C on the same medium after being retrieved from the storage tube. Plates were flooded with sterile distilled water, and then conidia were scraped with a glass rod. Mycelial debris was removed by filtration. The spores were harvested and suspended in sterile distilled water containing 0.1% (v/v) Tween 20. The concentration of the spore suspension was adjusted to 1.0 × 10^6 spores/mL with sterilized distilled water following.
(§2) The tested samples (10.0 mg) dissolved in acetone (0.1 mL) were diluted with sterile distilled water to prepare 10.0 mL stock solution, which was further diluted to prepare test solutions in which the final concentration of acetone was <1% (v/v). A series of concentrations of tested samples and one control (1% acetone with sterile distilled water) were separately tested for spore germination of C. lagenarium or B. cinerea. The samples were inoculated with spore suspension of C. lagenarium or B. cinerea containing 1.0 × 10^6 spores/mL. Aliquots of 10 μL of prepared spore suspension were placed on separate glass slides in triplicate. Slides containing the spores were incubated in a moisture chamber at 25 °C for 6~8 h. Each slide was then observed under the microscope for spore germination. Spores were considered to have germinated if the length of the germ tube was at least half the length of the spore. Afterward, spore germination was stopped by applying a drop of lactophenol-cotton blue to the inoculation sites on plates. The numbers of generated spores were counted under a microscope (Olympus BX61, Tokyo, Japan), and the percentage of germinated spores was calculated. Chlorothalonil was used as the positive control.

[2] = test system: HepG2 cell line; test: Cytotoxic activity against human tumor cells line (HepG2); type: cell-based
[3] = test system: C. lagenarium; test: Spore germination assay, fungicidal activity against C. lagenarium; type: cell-based, Colletotrichum lagenarium; details: Colletotrichum orbiculare; for pIC50: in vitro, spore germination, n = 3, read-out: IC50, C. lagenarium
Procedure: as §1, §2

[4] = Table 1, from IC50 in μM, read-out: pIC50, C. lagenarium (converted)
[5] = Table 2, fungicidal activity against C. lagenarium used for QSAR, read-out: pIC50 (converted)
[6] = Table 4, experimental, C. lagenarium, read-out: Exp. pIC50 (converted)
[7] = Table 6, read-out: IC50 (μM) (against C. lagenarium)

Compound `C=C1CC(c2ccccc2OC(=O)c2cccc(C)c2)OC1=O` (stereo not drawn) [Compound 5i, 4-[2-(3-Methylbenzoyloxy)phenyl]-2-methylenebutyrolactone] has a pIC50 [1] of 3.71, an IC50 [2] of 85.2 µM and an IC50 [3, 4] of 182 µM. The IC50 [3, 5] was 182 µM, the IC50 [3, 6] was 182 µM and the IC50 [3, 7] was 182 µM. The pIC50 [3] was 3.74 and the melting point was 179.3 to 179.9 °C.
`C=C1CC(c2ccc(OC(=O)c3cccc(C)c3)cc2)OC1=O` (stereo not drawn) [Compound 4k, 4-[4-(3-Methylbenzoyloxy)phenyl]-2-methylenebutyrolactone] gave a pIC50 [1] of 3.71, an IC50 [2] of 28.5 µM and an IC50 [3, 4] of 178 µM. For the same compound, the IC50 [3, 5] was 178 µM, the IC50 [3, 6] was 178 µM and the IC50 [3, 7] was 178 µM. It also gave a pIC50 [3] of 3.75 and a melting point of 186.2 to 186.6 °C.
In the case of `C=C1CC(c2ccc(OC(=O)c3cccc(Br)c3)cc2)OC1=O` (stereo not drawn) [Compound 4e, 4-[4-(3-Bromobenzoyloxy)phenyl]-2-methylenebutyrolactone], the pIC50 [1] was 4.52, the IC50 [2] was 21.7 µM and the IC50 [3, 4] was 8.77 µM. It also gave an IC50 [3, 5] of 8.77 µM, an IC50 [3, 6] of 8.77 µM and an IC50 [3, 7] of 8.76 µM. It also gave a pIC50 [3] of 5.06 and a melting point of 176.5 to 176.8 °C.
Compound `C=C1CC(c2ccccc2OCCC)OC1=O` (stereo not drawn) [Compound 5p, 4-(2-Propoxylphenyl)-2-methylenebutyrolactone] has a pIC50 [1] of 3.28, an IC50 [2] greater than 132 µM and an IC50 [3, 4] of 499 µM. For the same compound, the IC50 [3, 5] was 499 µM, the IC50 [3, 6] was 499 µM and the IC50 [3, 7] was 499 µM. The pIC50 [3] was 3.30.
For `C=C1CC(c2ccc(OC(=O)c3cccc(C#N)c3)cc2)OC1=O` (stereo not drawn) [Compound 4g, 4-[4-(3-Benzonitrile)phenyl]-2-methylenebutyrolactone], the pIC50 [1] was 4.22, the IC50 [2] was 18.3 µM and the IC50 [3, 4] was 52.8 µM. The IC50 [3, 5] was 52.8 µM, the IC50 [3, 6] was 52.8 µM and the IC50 [3, 7] was 52.9 µM. For the same compound, the pIC50 [3] was 4.28.
Compound `C=C1CC(c2ccc(OC(=O)C=Cc3ccc(O)c(OC)c3)cc2)OC1=O` (stereo not drawn) [Compound 4q] has a pIC50 [1] of 4.67, an IC50 [2] of 27.3 µM and an IC50 [3, 4] of 8.93 µM. The IC50 [3, 6] was 8.93 µM, the IC50 [3, 7] was 8.93 µM and the pIC50 [3] was 5.05.
With `C=C1CC(c2cccc(OC(=O)C=Cc3ccccc3)c2)OC1=O` (stereo not drawn) [Compound 6n, 4-(3-Cinnamoyloxyphenyl)-2-methylenebutyrolactone] the pIC50 [1] was 4.40, the IC50 [2] was 15.7 µM and the IC50 [3, 4] was 24.3 µM. It also gave an IC50 [3, 5] of 24.3 µM, an IC50 [3, 6] of 24.3 µM and an IC50 [3, 7] of 24.2 µM. For the same compound, the pIC50 [3] was 4.62.
`C=C1CC(c2ccccc2OC(=O)c2cccc(Br)c2)OC1=O` (stereo not drawn) [Compound 5d, 4-[2-(3-Bromobenzoyloxy)phenyl]-2-methylenebutyrolactone] gave a pIC50 [1] of 4.64, an IC50 [2] of 35.6 µM and an IC50 [3, 4] of 13.4 µM. It also gave an IC50 [3, 5] of 13.4 µM, an IC50 [3, 6] of 13.4 µM and an IC50 [3, 7] of 13.4 µM. For the same compound, the pIC50 [3] was 4.87 and the melting point was 189.7 to 190.4 °C.
`C=C1CC(c2ccccc2OCC)OC1=O` (stereo not drawn) [Compound 5r, 4-(2-Ethoxyphenyl)-2-methylenebutyrolactone] showed a pIC50 [1] of 3.26, an IC50 [2] of 38.4 µM and an IC50 [3, 4] of 520 µM. It also gave an IC50 [3, 5] of 520 µM, an IC50 [3, 6] of 520 µM and an IC50 [3, 7] of 519 µM. The pIC50 [3] was 3.28.
With `C=C1CC(c2cccc(OC(=O)c3ccccc3)c2)OC1=O` (stereo not drawn) [Compound 6f, 4-(3-Benzoyloxyphenyl)-2-methylenebutyrolactone] the pIC50 [1] was 3.99, the IC50 [2] was 18.5 µM and the IC50 [3, 4] was 73.1 µM. The IC50 [3, 5] was 73.1 µM, the IC50 [3, 6] was 73.1 µM and the IC50 [3, 7] was 73.1 µM. For the same compound, the pIC50 [3] was 4.14 and the melting point was 204.5 to 204.8 °C.
`C=C1CC(c2ccc(OC(=O)c3ccc(OC)cc3)cc2)OC1=O` (stereo not drawn) [Compound 4o, 4-[4-(4-Methoxylbenzoyloxy)phenyl]-2-methylenebutyrolactone] gave a pIC50 [1] of 3.64, an IC50 [2] of 25 µM and an IC50 [3, 4] of 219 µM. For the same compound, the IC50 [3, 5] was 219 µM, the IC50 [3, 6] was 219 µM and the IC50 [3, 7] was 219 µM. For the same compound, the pIC50 [3] was 3.66 and the melting point was 184.5 to 185.2 °C.
Work on `C=C1CC(c2cccc(OC(=O)c3cccc(Br)c3)c2)OC1=O` (stereo not drawn) [Compound 6d, 4-[3-(3-Bromobenzoyloxy)phenyl]-2-methylenebutyrolactone] yielded a pIC50 [1] of 4.59, an IC50 [2] of 20.9 µM and an IC50 [3, 4] of 8.17 µM. For the same compound, the IC50 [3, 5] was 8.17 µM, the IC50 [3, 6] was 8.17 µM and the IC50 [3, 7] was 8.17 µM. It also gave a pIC50 [3] of 5.09 and a melting point of 178.6 to 178.9 °C.
